One assay deals with T1, HSP90α protein (Homo sapiens, UniProt P07900).
T1 construct: purchased BPS Bioscience #50298
Description: HSP90α-binding FP (BODIPY) assay. The settings on record: FP competition with BODIPY-labeled RNK04010. The protocol:
Binding of test compounds to HSP90α protein was measured by fluorescent polarization (FP) using the HSP90α (N-terminal) Assay Kit (BPS Bioscience, #50298), following the manufacturer's instructions, except as noted. Fluorescently labeled HSP90-binding compounds, either the provided FITC-geldanamycin (5 nM final concentration) or RNK04010, a triazolone-based HSP90 binding small molecule labeled with BODIPY through a piperazine-phenyl linker (5 nM final concentration) were employed. A 2.5-fold serial dilution of each test compound ranging from 20 μM to 5.2 nM was assayed for binding to HSP90α. After the final step of adding HSP90α protein to each assay well, plates were mixed by brief shaking, incubated at 25° C. for 120 min for FITC-geldanamycin or 300 min for RNK04010, and fluorescence was measured using a PerkinElmer EnVision Plate Reader.

The test system of assay [1] is MV-4-11 human acute myeloid leukemia. Kind of assay: MV-4-11 CCK-8 proliferation assay. The conditions noted are these: Homo sapiens, MV4-11; MV-4-11 cells, 72 hr. In kind it is cell-based. In a few lines: (§1)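 Lines were maintained according to ATCC guidance. Compounds were then applied as a 3-fold titration from 20 μM to 1.02 nM, and proliferation was measured by CCK-8 absorbance, normalised to DMSO controls minus a no-cell blank.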
In general terms: Formazan colour is commonly taken as a measure of viable cells.

In assay [2] the test system is U-87 MG human glioblastoma. Kind of assay: U87 MG CCK-8 proliferation assay. The conditions noted are these: Homo sapiens, U-87 MG, 72 h, U-87 MG cells, read-out: U87MG CCK-8. The assay is classed as cell-based. In a few lines:
as §1

For orientation: IC50 means the concentration that gives 50% inhibition. A low value points to inhibition by little substance.

The molecule `CCOc1cc(N2CCC(C(=O)N3CCC(CN4CCN(CCCOc5ccc(Nc6ccc(-n7nc(C(F)(F)F)c8c7CC(C)(C)CC8=O)cc6C(N)=O)cc5)CC4)CC3)CC2)ccc1Nc1ncc2c(n1)N(S(C)(=O)=O)c1ccccc1C(=O)N2C` [Compound 068, 5-(6,6-dimethyl-4-oxo-3-(trifluoromethyl)-4,5,6,7-tetrahydro-1H-indazol-1-yl)-2-((4-(3-(4-((1-(1-(3-ethoxy-4-((5-methyl-11-(methylsulfonyl)-6-oxo-6,11-dihydro-5H-benzo[e]pyrimido[5,4-b][1,4]diazepin-2-yl)amino)phenyl)piperidine-4-carbonyl)piperidin-4-yl)methyl)piperazin-1-yl)propoxy)phenyl)amino)benzamide] registered an IC50 on HSP90α protein of over 1 µM. Besides, the EC50 was 0.1 to 1 µM in assay [1] and over 1 µM in assay [2].
As to `CCOc1cc(N2CCC(C(=O)N3CCC(N4CCN(Cc5ccc(-n6c(O)nnc6-c6cc(C(C)C)c(O)cc6O)cc5C(F)(F)F)CC4)CC3)CC2)ccc1Nc1ncc2c(n1)N(S(C)(=O)=O)c1ccccc1C(=O)N2C` [Compound 069, 2-((4-(4-(4-(4-(4-(3-(2,4-dihydroxy-5-isopropylphenyl)-5-hydroxy-4H-1,2,4-triazol-4-yl)-2-(trifluoromethyl)benzyl)piperazin-1-yl)piperidine-1-carbonyl)piperidin-1-yl)-2-ethoxyphenyl)amino)-5-methyl-11-(methylsulfonyl)-5,11-dihydro-6H-benzo[e]pyrimido[5,4-b][1,4]diazepin-6-one], the IC50 at HSP90α protein was in the range of 0.1 to 1 µM. The EC50 in assay [1] is under 0.1 µM; in assay [2], 0.1 to 1 µM.
For the molecule `CCOc1cc(N2CCC(C(=O)NCc3ccc(-n4c(O)nnc4-c4cc(CC)c(O)cc4O)cc3)CC2)ccc1Nc1ncc2c(n1)N(S(C)(=O)=O)c1ccccc1C(=O)N2C` [Compound 071, 1-(3-ethoxy-4-((5-methyl-11-(methylsulfonyl)-6-oxo-6,11-dihydro-5H-benzo[e]pyrimido[5,4-b][1,4]diazepin-2-yl)amino)phenyl)-N-(4-(3-(5-ethyl-2,4-dihydroxyphenyl)-5-hydroxy-4H-1,2,4-triazol-4-yl)benzyl)piperidine-4-carboxamide], the concentration for half-maximal inhibition (IC50) at HSP90α protein was in the range of 0.1 to 1 µM. In addition, the EC50 was 0.1 to 1 µM in assay [1] and over 1 µM in assay [2].
The molecule `CCOc1cc(N2CCC(C(=O)N3CCN(Cc4ccc(-n5c(O)nnc5-c5cc(C(C)C)c(O)cc5O)cc4C(F)(F)F)CC3)CC2)ccc1Nc1ncc2c(n1)N(S(C)(=O)=O)c1ccccc1C(=O)N2C` [Compound 072, 2-((4-(4-(4-(4-(3-(2,4-dihydroxy-5-isopropylphenyl)-5-hydroxy-4H-1,2,4-triazol-4-yl)-2-(trifluoromethyl)benzyl)piperazine-1-carbonyl)piperidin-1-yl)-2-ethoxyphenyl)amino)-5-methyl-11-(methylsulfonyl)-5,11-dihydro-6H-benzo[e]pyrimido[5,4-b][1,4]diazepin-6-one] returned a half-maximal inhibitory concentration (IC50) at HSP90α protein of 0.1 to 1 µM. Also, the EC50 in assay [1] was under 0.1 µM; in assay [2] it was 0.1 to 1 µM.
At HSP90α protein, `CCOc1cc(N2CCC(C(=O)NCc3ccc(-n4c(O)nnc4-c4cc(C)c(O)cc4O)cc3)CC2)ccc1Nc1ncc2c(n1)N(S(C)(=O)=O)c1ccccc1C(=O)N2C` [Compound 073, N-(4-(3-(2,4-dihydroxy-5-methylphenyl)-5-hydroxy-4H-1,2,4-triazol-4-yl)benzyl)-1-(3-ethoxy-4-((5-methyl-11-(methylsulfonyl)-6-oxo-6,11-dihydro-5H-benzo[e]pyrimido[5,4-b][1,4]diazepin-2-yl)amino)phenyl)piperidine-4-carboxamide] came in with an IC50 of over 1 µM. Moreover, the EC50 in assay [1] and in assay [2] was over 1 µM each time.
In turn, `CCCc1cc(-c2nnc(O)n2-c2ccc(CNC(=O)C3CCN(c4ccc(Nc5ncc6c(n5)N(S(C)(=O)=O)c5ccccc5C(=O)N6C)c(OCC)c4)CC3)cc2)c(O)cc1O` [Compound 074, N-(4-(3-(2,4-dihydroxy-5-propylphenyl)-5-hydroxy-4H-1,2,4-triazol-4-yl)benzyl)-1-(3-ethoxy-4-((5-methyl-11-(methylsulfonyl)-6-oxo-6,11-dihydro-5H-benzo[e]pyrimido[5,4-b][1,4]diazepin-2-yl)amino)phenyl)piperidine-4-carboxamide] gave an IC50 at HSP90α protein of over 1 µM. Further, the EC50 in assay [1] was 0.1 to 1 µM; in assay [2], over 1 µM.
As for `CCOc1cc(N2CCC(C(=O)N3CCC(Cc4ccc(CN(C)Cc5ccc(-n6c(C(=O)NCC(F)(F)F)nnc6-c6cc(C(C)C)c(O)cc6O)cc5)cc4)CC3)CC2)ccc1Nc1ncc2c(n1)N(S(C)(=O)=O)c1ccccc1C(=O)N2C` [Compound 076, 5-(2,4-dihydroxy-5-isopropylphenyl)-4-(4-(((4-((1-(1-(3-ethoxy-4-((5-methyl-11-(methylsulfonyl)-6-oxo-6,11-dihydro-5H-benzo[e]pyrimido[5,4-b][1,4]diazepin-2-yl)amino)phenyl)piperidine-4-carbonyl)piperidin-4-yl)methyl)benzyl)(methyl)amino)methyl)phenyl)-N-(2,2,2-trifluoroethyl)-4H-1,2,4-triazole-3-carboxamide], the IC50 at HSP90α protein was over 1 µM. In addition, the EC50 in assay [1] was 0.1 to 1 µM; in assay [2], over 1 µM.
For `CCOc1cc(N2CCC(C(=O)N[C@H](C)c3ccc(CN4CCC(Cc5ccc(-n6c(O)nnc6-c6cc(C(C)C)c(O)cc6O)cc5)CC4)cc3)CC2)ccc1Nc1ncc2c(n1)N(S(C)(=O)=O)c1ccccc1C(=O)N2C` [Compound 077, (R)—N-(1-(4-((4-(4-(3-(2,4-dihydroxy-5-isopropylphenyl)-5-hydroxy-4H-1,2,4-triazol-4-yl)benzyl)piperidin-1-yl)methyl)phenyl)ethyl)-1-(3-ethoxy-4-((5-methyl-11-(methylsulfonyl)-6-oxo-6,11-dihydro-5H-benzo[e]pyrimido[5,4-b][1,4]diazepin-2-yl)amino)phenyl)piperidine-4-carboxamide], the IC50 on HSP90α protein lay in the range of 0.1 to 1 µM. Moreover, the EC50 in assay [1] was under 0.1 µM; in assay [2], 0.1 to 1 µM.
Molecule `CCOc1cc(N2CCC(C(=O)NCC3CCN(C(=O)C4CCN(Cc5ccc(-n6c(O)nnc6-c6cc(CC)c(O)cc6O)cc5)CC4)CC3)CC2)ccc1Nc1ncc2c(n1)N(S(C)(=O)=O)c1ccccc1C(=O)N2C` [Compound 079, 1-(3-ethoxy-4-((5-methyl-11-(methylsulfonyl)-6-oxo-6,11-dihydro-5H-benzo[e]pyrimido[5,4-b][1,4]diazepin-2-yl)amino)phenyl)-N-((1-(1-(4-(3-(5-ethyl-2,4-dihydroxyphenyl)-5-hydroxy-4H-1,2,4-triazol-4-yl)benzyl)piperidine-4-carbonyl)piperidin-4-yl)methyl)piperidine-4-carboxamide] displayed an IC50 at HSP90α protein of under 0.1 µM. For the same molecule, the EC50 in assay [1] is 0.1 to 1 µM; in assay [2] it was over 1 µM.
In the same order, the values of `CCOc1cc(N2CCC(C(=O)NCc3ccc(-n4c(O)nnc4-c4cc(C(C)C)c(O)cc4O)cc3)CC2)ccc1Nc1ncc2c(n1)N(S(C)(=O)=O)c1ccccc1C(=O)N2C` [Compound 080, N-(4-(3-(2,4-dihydroxy-5-isopropylphenyl)-5-hydroxy-4H-1,2,4-triazol-4-yl)benzyl)-1-(3-ethoxy-4-((5-methyl-11-(methylsulfonyl)-6-oxo-6,11-dihydro-5H-benzo[e]pyrimido[5,4-b][1,4]diazepin-2-yl)amino)phenyl)piperidine-4-carboxamide] are 0.1 to 1 µM, under 0.1 µM and over 1 µM.
The matching figures for `CCOc1cc(N2CCC(C(=O)N3CCC(CN4CCN(Cc5ccc(-n6c(C(=O)NCC(F)(F)F)nnc6-c6cc(C)c(O)cc6O)cc5)CC4)CC3)CC2)ccc1Nc1ncc2c(n1)N(S(C)(=O)=O)c1ccccc1C(=O)N2C` [Compound 081, 5-(2,4-dihydroxy-5-methylphenyl)-4-(4-((4-((1-(1-(3-ethoxy-4-((5-methyl-11-(methylsulfonyl)-6-oxo-6,11-dihydro-5H-benzo[e]pyrimido[5,4-b][1,4]diazepin-2-yl)amino)phenyl)piperidine-4-carbonyl)piperidin-4-yl)methyl)piperazin-1-yl)methyl)phenyl)-N-(2,2,2-trifluoroethyl)-4H-1,2,4-triazole-3-carboxamide]: under 0.1 µM, under 0.1 µM and 0.1 to 1 µM.
For `CCOc1cc(N2CCC(C(=O)N3CCC(CN4CCN(Cc5ccc(-n6c(O)nnc6-c6cc(CC)c(O)cc6O)cc5F)CC4)CC3)CC2)ccc1Nc1ncc2c(n1)N(S(C)(=O)=O)c1ccccc1C(=O)N2C` [Compound 082, 2-((2-ethoxy-4-(4-(4-((4-(4-(3-(5-ethyl-2,4-dihydroxyphenyl)-5-hydroxy-4H-1,2,4-triazol-4-yl)-2-fluorobenzyl)piperazin-1-yl)methyl)piperidine-1-carbonyl)piperidin-1-yl)phenyl)amino)-5-methyl-11-(methylsulfonyl)-5,11-dihydro-6H-benzo[e]pyrimido[5,4-b][1,4]diazepin-6-one], the IC50 on HSP90α protein is under 0.1 µM. Moreover, the EC50 in assay [1] and in assay [2] was under 0.1 µM in each case.

The record behind these values is patent US20240124460A1, “METHODS AND COMPOSITIONS FOR TARGETED PROTEIN DEGRADATION” (Ranok Therapeutics (Hangzhou) Co. Ltd., priority 2020, published 2024).
